Measured values: patent US20050113450A1, “Antibacterial agents” (priority 2002, published 2005)
≈ marks a conversion by molar mass, not a printed value.

system: SA 9218; experiment: MIC by standard agar dilution method; format: cell-based; conditions: Mueller Hinton agar, 10^4 to 10^5 cells per spot, incubated overnight at 35° C., lowest concentration that inhibits visible growth
Text: The antibacterial agents of this invention have useful activity against a variety of organisms. The in vitro activity of compounds of this invention can be assessed by standard testing procedures such as the determination of minimum inhibitory concentration (MIC) by agar dilution as described in “Approved Standard. Methods for Dilution Antimicrobial Susceptibility Tests for Bacteria That Grow Aerobically”, 3rd. ed., published 1993 by the National Committee for Clinical Laboratory Standards, Villanova, Pa., USA. The in vitro MICs of test compounds were determined by a standard agar dilution method. A stock drug solution of each analog was prepared in the preferred solvent, usually DMSO:H2O (1:3). Serial 2-fold dilutions of each sample are made using 1.0 ml aliquots of sterile distilled water. To each 1.0 ml aliquot of drug was added 9 ml of molten Mueller Hinton agar medium. The drug-supplemented agar was mixed, poured into 15×100 mm petri dishes, and allowed to solidify and dry prior to inoculation. Vials of each of the test organisms are maintained frozen in the vapor phase of a liquid nitrogen freezer. Test cultures are grown overnight at 35° C. on the medium appropriate for the organism. Colonies are harvested with a sterile swab, and cell suspensions are prepared in Trypticase Soy broth (TSB) to equal the turbidity of a 0.5 McFarland standard. A 1:20 dilution of each suspension was made in TSB. The plates containing the drug supplemented agar are inoculated with a 0.001 ml drop of the cell suspension using a Steers replicator, yielding approximately 10^4 to 10^5 cells per spot. The plates are incubated overnight at 35° C. Following incubation the Minimum Inhibitory Concentration (MIC μg/ml), the lowest concentration of drug that inhibits visible growth of the organism, was read and recorded.

| SMILES | MIC [µg/mL] |
| --- | --- |
| Cc1ccc(S(=O)(=O)Nc2ccc(C(=O)Nc3ccc(Br)cc3C(=O)O)cc2)cc1 | 16 (≈ 32.7 µM) |
| O=C(Nc1ccc(I)cc1C(=O)O)c1ccc(S(=O)(=O)N2CCc3ccc(Cl)cc32)cc1 | 4 (≈ 6.86 µM) |
| O=C(Nc1ccc(Br)cc1C(=O)O)c1ccc(Br)c(S(=O)(=O)N2CCN(c3cccc(C(F)(F)F)c3)CC2)c1 | 8 (≈ 11.6 µM) |
| Cc1ccc(S(=O)(=O)N2CCN(c3ccc(Cl)cc3)CC2)cc1C(=O)Nc1ccc(Br)cc1C(=O)O | 32 (≈ 54 µM) |
| O=C(Nc1ccc(Br)cc1C(=O)O)c1cccc(O)c1 | 32 (≈ 95.2 µM) |
| COc1ccc(C(=O)Nc2ccc(Br)cc2C(=O)O)cc1S(=O)(=O)NCc1ccc(N(C)C)cc1 | > 128 |
| COCCOc1cccc(C(=O)Nc2ccc(Br)cc2C(=O)O)c1 | 16 (≈ 40.6 µM) |
| CCCC(=O)C(CCC)Oc1cccc(C(=O)Nc2ccc(Br)cc2C(=O)O)c1 (stereo not shown) | 2 (≈ 4.33 µM) |
| COC(=O)C(Oc1cccc(C(=O)Nc2ccc(Br)cc2C(=O)O)c1)c1ccccc1 (stereo not shown) | 4 (≈ 8.26 µM) |
| O=C(Nc1ccc(Br)cc1C(=O)O)c1ccc(O)cc1 | 32 (≈ 95.2 µM) |
| Cc1ncsc1CCOc1cccc(C(=O)Nc2ccc(Br)cc2C(=O)O)c1 | 8 (≈ 17.3 µM) |
| CCOc1cccc(C(=O)Nc2ccc(Br)cc2C(=O)O)c1 | 64 (≈ 176 µM) |
| O=C(Nc1ccc(Br)cc1C(=O)O)c1cccc(OCCN2CCCC2=O)c1 | 32 (≈ 71.5 µM) |
| CCOCCOCCOc1cccc(C(=O)Nc2ccc(Br)cc2C(=O)O)c1 | 32 (≈ 70.7 µM) |
| Cc1oc(-c2ccccc2)nc1CCOc1cccc(C(=O)Nc2ccc(Br)cc2C(=O)O)c1 | 32 (≈ 61.4 µM) |
| COC(=O)COc1cccc(C(=O)Nc2ccc(Br)cc2C(=O)O)c1 | 32 (≈ 78.4 µM) |
| CCCC(Oc1cccc(C(=O)Nc2ccc(Br)cc2C(=O)O)c1)C(=O)OCC (stereo not shown) | 8 (≈ 17.2 µM) |
| O=C(Nc1ccc(Br)cc1C(=O)O)c1cccc(OCc2cccnc2)c1 | 32 (≈ 74.9 µM) |
| O=C(Nc1ccc(Br)cc1C(=O)O)c1ccc(OCCOc2ccccc2)cc1 | 128 (≈ 281 µM) |
| O=C(Nc1ccc(Br)cc1C(=O)O)c1cccc(OCC2CCOC2)c1 (stereo not shown) | 16 (≈ 38.1 µM) |
| CC(=O)NCCOc1ccc(C(=O)Nc2ccc(Br)cc2C(=O)O)cc1 | 64 (≈ 152 µM) |
| O=C(Nc1ccc(Br)cc1C(=O)O)c1cccc(OCn2nnc3ccccc32)c1 | 32 (≈ 68.5 µM) |
| CCOCCOCCOc1ccc(C(=O)Nc2ccc(Br)cc2C(=O)O)cc1 | 128 (≈ 283 µM) |
| CCOc1ccc(C(=O)Nc2ccc(Br)cc2C(=O)O)cc1 | 64 (≈ 176 µM) |

| SMILES | MIC [µg/mL] |
| --- | --- |
| COc1cccc(COc2ccc(C(=O)Nc3ccc(Br)cc3C(=O)O)cc2)c1 | 8 (≈ 17.5 µM) |
| CN(CCOc1ccc(C(=O)Nc2ccc(Br)cc2C(=O)O)cc1)Cc1ccccc1 | 128 (≈ 265 µM) |
| COC(=O)COc1ccc(C(=O)Nc2ccc(Br)cc2C(=O)O)cc1 | 64 (≈ 157 µM) |
| COCCOc1ccc(C(=O)Nc2ccc(Br)cc2C(=O)O)cc1 | 128 (≈ 325 µM) |
| O=C(Nc1ccc(Br)cc1C(=O)O)c1ccc(OCc2cccnc2)cc1 | 64 (≈ 150 µM) |
| CCC#CCCOc1ccc(C(=O)Nc2ccc(Br)cc2C(=O)O)cc1 | 16 (≈ 38.4 µM) |
| COC(COc1ccc(C(=O)Nc2ccc(Br)cc2C(=O)O)cc1)c1ccccc1 (stereo not shown) | 64 (≈ 136 µM) |
| Nc1ccc(CCNS(=O)(=O)c2cccc(C(=O)Nc3ccc(Br)cc3C(=O)O)c2)cc1 | 64 (≈ 123 µM) |
| CCN(Cc1ccncc1)S(=O)(=O)c1cccc(C(=O)Nc2ccc(Br)cc2C(=O)O)c1 | 32 (≈ 61.7 µM) |
| CCNS(=O)(=O)c1cccc(C(=O)Nc2ccc(Br)cc2C(=O)O)c1 | 64 (≈ 150 µM) |
| O=C(Nc1ccc(Br)cc1C(=O)O)c1cc(S(=O)(=O)N2CCN(c3cccc(C(F)(F)F)c3)CC2)ccc1Br | 8 (≈ 11.6 µM) |
| N#Cc1ccc(NC(=O)c2ccc(O)cc2)c(C(=O)O)c1 | 64 (≈ 227 µM) |
| O=C(Nc1ccc(Br)cc1C(=O)O)c1cc(S(=O)(=O)Nc2ccc(F)c(Cl)c2)ccc1Br | 32 (≈ 52.7 µM) |
| COc1ccc(C(=O)Nc2ccc(Br)cc2C(=O)O)cc1S(=O)(=O)Nc1ccc(Cl)c2ccccc12 | > 128 |
| O=C(Nc1ccc(Br)cc1C(=O)O)c1cc(S(=O)(=O)N2CCc3ccccc32)ccc1Br | 2 (≈ 3.45 µM) |
| COc1ccc(C(=O)Nc2ccc(Br)cc2C(=O)O)cc1S(=O)(=O)Nc1ccc(N2CCOCC2)cc1 | 64 (≈ 108 µM) |
| Cc1ccc(S(=O)(=O)NCCc2ccc(N)cc2)cc1C(=O)Nc1ccc(Br)cc1C(=O)O | > 128 |
| Cc1ccc(S(=O)(=O)N2CCN(c3cccc(C(F)(F)F)c3)CC2)cc1C(=O)Nc1ccc(Br)cc1C(=O)O | 16 (≈ 25.5 µM) |
| CCN(Cc1ccncc1)S(=O)(=O)c1cc(C(=O)Nc2ccc(Br)cc2C(=O)O)ccc1Br | 128 (≈ 214 µM) |
| O=C(Nc1ccc(Br)cc1C(=O)O)c1cc(S(=O)(=O)Nc2ccc(F)c(Cl)c2)c(F)cc1Cl | > 128 |
| O=C(Nc1ccc(Br)cc1C(=O)O)c1ccc(/N=N/c2ccccc2)cc1 | 16 (≈ 37.7 µM) |
| O=C(Nc1ccc(Br)cc1C(=O)O)c1ccc(Br)c(S(=O)(=O)Nc2ccc3c(c2)OCCO3)c1 | 64 (≈ 105 µM) |
| O=C(Nc1ccc(Br)cc1C(=O)O)c1ccccc1F | 128 (≈ 379 µM) |
| COc1ccc(C(=O)Nc2ccc(Br)cc2C(=O)O)cc1S(=O)(=O)N1CCN(c2cccc(C(F)(F)F)c2)CC1 | 32 (≈ 49.8 µM) |

| SMILES | MIC [µg/mL] |
| --- | --- |
| N#Cc1ccc(NC(=O)c2cccc3cccc(C=O)c23)c(C(=O)O)c1 | > 128 |
| CC(C)CN1C(=O)c2ccc(C(=O)Nc3ccc(Br)cc3C(=O)O)cc2C1=O | 2 (≈ 4.49 µM) |
| CN(C)c1cccc(C(=O)Nc2ccc(C#N)cc2C(=O)O)c1 | 8 (≈ 25.9 µM) |
| O=C(Nc1ccc(Br)cc1C(=O)O)c1ccc2c(c1)C(=O)N(CC1CCCO1)C2=O (stereo not shown) | 8 (≈ 16.9 µM) |
| C=Cc1ccc(C(=O)Nc2ccc(C#N)cc2C(=O)O)cc1 | 8 (≈ 27.4 µM) |
| COc1ccc(C(=O)Nc2ccc(Br)cc2C(=O)O)cc1[N+](=O)[O-] | 32 (≈ 81 µM) |
| COc1cc(C(=O)Nc2ccc(C#N)cc2C(=O)O)cc(OC)c1OC | 64 (≈ 180 µM) |
| CN1C(=O)c2ccc(C(=O)Nc3ccc(Br)cc3C(=O)O)cc2C1=O | 128 (≈ 317 µM) |
| N#Cc1ccc(NC(=O)c2ccc(-c3ccccc3)cc2)c(C(=O)O)c1 | 64 (≈ 187 µM) |
| COc1cc(C(=O)Nc2ccc(C#N)cc2C(=O)O)ccc1C | > 128 |
| COc1cc(C(=O)Nc2ccc(C#N)cc2C(=O)O)c([N+](=O)[O-])cc1OC | > 128 |
| N#Cc1ccc(C(=O)Nc2ccc(C#N)cc2C(=O)O)cc1 | > 128 |
| N#Cc1ccc(NC(=O)c2ccc3ccccc3c2)c(C(=O)O)c1 | 2 (≈ 6.32 µM) |
| N#Cc1ccc(NC(=O)c2cccc(F)c2)c(C(=O)O)c1 | 64 (≈ 225 µM) |
| CCOc1cc(C(=O)Nc2ccc(C#N)cc2C(=O)O)cc(OCC)c1OCC | 16 (≈ 40.2 µM) |
| CCSc1ccc(C(=O)Nc2ccc(C#N)cc2C(=O)O)cc1 | 2 (≈ 6.13 µM) |
| COc1ccc(C(=O)Nc2ccc(C#N)cc2C(=O)O)cc1 | 16 (≈ 54 µM) |
| CCN(CC)c1ccc(C(=O)Nc2ccc(C#N)cc2C(=O)O)cc1 | 16 (≈ 47.4 µM) |
| CCN(CC)C(=O)c1c(F)ccc(F)c1C(=O)Nc1ccc(C#N)cc1C(=O)O | > 128 |
| COc1ccc(C(=O)Nc2ccc(C#N)cc2C(=O)O)cc1OC | 64 (≈ 196 µM) |
| CCCOc1ccc(C(=O)Nc2ccc(C#N)cc2C(=O)O)cc1 | 16 (≈ 49.3 µM) |
| CCOc1ccc(C(=O)Nc2ccc(C#N)cc2C(=O)O)cc1OCC | 128 (≈ 361 µM) |
| N#Cc1ccc(NC(=O)c2ccc3c(c2)OCO3)c(C(=O)O)c1 | 16 (≈ 51.6 µM) |
| CCOc1ccc(C(=O)Nc2ccc(C#N)cc2C(=O)O)cc1 | 32 (≈ 103 µM) |

| SMILES | MIC [µg/mL] |
| --- | --- |
| COc1ccc(CCOc2ccc(C(=O)Nc3ccc(Br)cc3C(=O)O)cc2)cc1 | > 128 |
| N#Cc1ccc(NC(=O)c2cccc3c2C(=O)c2ccccc2-3)c(C(=O)O)c1 | > 128 |
| COc1ccc(CCOc2cccc(C(=O)Nc3ccc(Br)cc3C(=O)O)c2)cc1 | 32 (≈ 68 µM) |
| CCCCCOc1ccc(C(=O)Nc2ccc(C#N)cc2C(=O)O)cc1 | 4 (≈ 11.4 µM) |
| O=C(Nc1ccc(Br)cc1C(=O)O)c1cccc(OCc2cccc([N+](=O)[O-])c2)c1 | 16 (≈ 34 µM) |
| Cc1cccc(C(=O)Nc2ccc(C#N)cc2C(=O)O)c1 | 32 (≈ 114 µM) |
| O=C(Nc1ccc(Br)cc1C(=O)O)c1cccc(OCc2cccc(F)c2)c1 | 16 (≈ 36 µM) |
| COc1ccc(C(=O)Nc2ccc(C#N)cc2C(=O)O)cc1F | 8 (≈ 25.5 µM) |
| O=C(Nc1ccc(Br)cc1C(=O)O)c1cccc(OCc2ccncc2)c1 | > 128 |
| O=C(Nc1ccc(Br)cc1C(=O)O)c1ccc(OCc2cccc(C(F)(F)F)c2)cc1 | 32 (≈ 64.7 µM) |
| O=C(Nc1ccc(Br)cc1C(=O)O)c1ccc(OCc2cccc([N+](=O)[O-])c2)cc1 | 16 (≈ 34 µM) |
| O=C(Nc1ccc(Br)cc1C(=O)O)c1cccc(OCc2cccc(C(F)(F)F)c2)c1 | 64 (≈ 129 µM) |
| COc1cc(COc2ccc(C(=O)Nc3ccc(Br)cc3C(=O)O)cc2)ccc1[N+](=O)[O-] | 8 (≈ 16 µM) |
| O=C(Nc1ccc(Br)cc1C(=O)O)c1ccc(OCC2CCCC2)cc1 | > 128 |
| C#CC(CC)Oc1ccc(C(=O)Nc2ccc(Br)cc2C(=O)O)cc1 (stereo not shown) | > 128 |
| O=C(Nc1ccc(Br)cc1C(=O)O)c1cccc(OCC2CCCC2)c1 | 128 (≈ 306 µM) |
| CCN(CCOc1ccc(C(=O)Nc2ccc(Br)cc2C(=O)O)cc1)c1ccccc1 | 64 (≈ 132 µM) |
| O=C(Nc1ccc(Br)cc1C(=O)O)c1ccc(OCCN2C(=O)CCC2=O)cc1 | > 128 |
| Cc1ncc([N+](=O)[O-])n1CCOc1ccc(C(=O)Nc2ccc(Br)cc2C(=O)O)cc1 | 128 (≈ 262 µM) |
| O=C(Nc1ccc(Br)cc1C(=O)O)c1ccc(OCc2cccc(F)c2)cc1 | 32 (≈ 72 µM) |
| CN1CCCC1COc1ccc(C(=O)Nc2ccc(Br)cc2C(=O)O)cc1 (stereo not shown) | > 128 |
| O=C(Nc1ccc(Br)cc1C(=O)O)c1ccc(OCc2ccncc2)cc1 | > 128 |
